Bounds are passed on as bounds.

For the assay, the target named is T1, human TRPV4 (Homo sapiens, UniProt Q9HBA0).
T1 construct: host or cells: tetracycline-inducible Flp-In T-REx 293 cells
Kind of assay: Hypotonicity-induced Ca2+ influx (Fluo-4, FDSS). The format is cell-based. Put shortly: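 Flp-In T-REx 293 cells with tetracycline-induced human TRPV4, loaded with Fluo-4 for 60 min at 25 °C. Compound added 5 min before hypotonic mannitol/CaCl2 solution. Ca2+ signal recorded for 4.5 min on FDSS.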

The mark [1] stands for this setting: Flp-In T-REx 293 cells expressing human TRPV4, examples listed under heading 'Human IC50<50 nM'.
Where [2] appears, read: Flp-In T-REx 293 cells stably expressing human TRPV4, compounds listed by potency bin (<10 nM Tables 96-1/96-2, <3 nM Table 97).

T1 sequence (Q9HBA0 whole entry): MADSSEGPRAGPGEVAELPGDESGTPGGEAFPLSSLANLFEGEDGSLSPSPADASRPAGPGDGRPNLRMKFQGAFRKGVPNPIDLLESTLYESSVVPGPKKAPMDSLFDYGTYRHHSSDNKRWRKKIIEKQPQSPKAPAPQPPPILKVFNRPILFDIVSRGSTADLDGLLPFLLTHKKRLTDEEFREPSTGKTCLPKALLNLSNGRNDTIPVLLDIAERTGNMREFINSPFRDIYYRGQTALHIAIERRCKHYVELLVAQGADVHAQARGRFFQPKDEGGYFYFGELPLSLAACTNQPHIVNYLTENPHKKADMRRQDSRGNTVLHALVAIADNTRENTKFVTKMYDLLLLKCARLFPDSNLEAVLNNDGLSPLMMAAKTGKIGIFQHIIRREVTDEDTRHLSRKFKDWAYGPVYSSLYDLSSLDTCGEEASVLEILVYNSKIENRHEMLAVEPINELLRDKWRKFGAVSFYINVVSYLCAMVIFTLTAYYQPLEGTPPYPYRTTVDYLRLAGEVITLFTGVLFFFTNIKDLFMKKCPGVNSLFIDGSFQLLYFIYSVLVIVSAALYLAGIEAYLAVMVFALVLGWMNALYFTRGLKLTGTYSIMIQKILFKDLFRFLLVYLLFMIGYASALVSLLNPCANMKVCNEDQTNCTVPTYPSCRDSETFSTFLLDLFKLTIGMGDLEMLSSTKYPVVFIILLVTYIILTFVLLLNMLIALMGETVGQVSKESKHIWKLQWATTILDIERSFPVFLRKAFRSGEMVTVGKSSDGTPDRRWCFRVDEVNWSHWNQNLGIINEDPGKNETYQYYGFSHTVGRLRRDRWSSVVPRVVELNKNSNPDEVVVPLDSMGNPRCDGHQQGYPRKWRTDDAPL

In turn, `CC(C)(C)c1cccc(-c2cccc([C@@H](O)C(=O)N3CCCc4nc(C5(c6cc(-c7ccccc7)cs6)CC5)[nH]c(=O)c4C3)c2)c1` [54-12] showed an IC50 under setting [1] of less than 0.05 µM and an IC50 under setting [2] of less than 0.01 µM.

For the compound `O=C([C@H](O)c1cccc(-c2cccc(Cl)c2)c1)N1CCCc2nc(C3(c4cc(-c5ccccc5)cs4)CC3)[nH]c(=O)c2C1` [54-13], the IC50 reads like this: under setting [1], less than 0.05 µM; under setting [2], less than 0.01 µM.

Consider `O=C([C@H](O)c1cccc(-c2cccc(C(F)(F)F)c2)c1)N1CCCc2nc(C3(c4cc(-c5ccccc5)cs4)CC3)[nH]c(=O)c2C1` [54-14], for which the IC50 is, setting by setting: under setting [1], less than 0.05 µM; under setting [2], less than 0.01 µM.

On to `CC(C)c1cncc(C2(c3nc4c(c(=O)[nH]3)CN(C(=O)C(O)c3cccc(-c5cccc(C(C)(C)C)c5)c3)CCC4)CC2)c1` (centres unmarked) [55-1], for which the IC50 runs as follows: under setting [1], less than 0.05 µM; under setting [2], less than 0.01 µM.

In the case of `CC(C)c1cncc(C2(c3nc4c(c(=O)[nH]3)CN(C(=O)C(O)c3cccc(-c5cccc(OC(F)(F)F)c5)c3)CCC4)CC2)c1` (centres unmarked) [55-2], the IC50 was less than 0.05 µM under setting [1] and less than 0.01 µM under setting [2].

For `CC(C)c1cncc(C2(c3nc4c(c(=O)[nH]3)CN(C(=O)C(O)c3cccc(-c5cccc(C(F)(F)F)c5)c3)CCC4)CC2)c1` (centres unmarked) [55-3], the IC50 under setting [1] was less than 0.05 µM and the IC50 under setting [2] is less than 0.01 µM.

On to `CC(C)c1cncc(C2(c3nc4c(c(=O)[nH]3)CN(C(=O)[C@H](O)c3cccc(-c5cccc(OC(F)(F)F)c5)c3)CCC4)CC2)c1` [55-4], for which the IC50 by setting is: under setting [1], less than 0.05 µM; under setting [2], less than 0.01 µM.

In the case of `CC(C)c1cncc(C2(c3nc4c(c(=O)[nH]3)CN(C(=O)[C@H](O)c3cccc(-c5cccc(C(F)(F)F)c5)c3)CCC4)CC2)c1` [55-5], the IC50 reads like this: under setting [1], less than 0.05 µM; under setting [2], less than 0.01 µM.

As for `CC(C)c1cncc(C2(c3nc4c(c(=O)[nH]3)CN(C(=O)[C@H](O)c3cccc(-c5cccc(C(C)(C)C)c5)c3)CCC4)CC2)c1` [55-6], the IC50 under setting [1] was less than 0.05 µM and the IC50 under setting [2] was less than 0.01 µM.

As for `CC(C)c1cncc(C2(c3nc4c(c(=O)[nH]3)CN(C(=O)[C@H](O)c3cccc(-c5cccc(F)c5)c3)CCC4)CC2)c1` [55-7], the half-maximal inhibitory concentration (IC50) is, setting by setting: under setting [1], less than 0.05 µM; under setting [2], less than 0.003 µM.

Take `CC(C)c1cncc(C2(c3nc4c(c(=O)[nH]3)CN(C(=O)[C@H](O)c3cccc(-c5cccc(Cl)c5)c3)CCC4)CC2)c1` [55-8]: the IC50 runs as follows: under setting [1], less than 0.05 µM; under setting [2], less than 0.003 µM.

In the case of `CC(C)c1cncc(C2(c3nc4c(c(=O)[nH]3)CN(C(=O)[C@H](O)c3cccc(-c5ccnc(C(F)(F)F)c5)c3)CCC4)CC2)c1` [55-9], the IC50 under setting [1] was less than 0.05 µM and the IC50 under setting [2] was less than 0.01 µM.

On to `O=C([C@H](O)c1cccc(-c2cccc(OC(F)(F)F)c2)c1)N1CCCc2nc(C3(c4cncc(C5CCCCC5)c4)CC3)[nH]c(=O)c2C1` [55-10], for which the IC50 is, setting by setting: under setting [1], less than 0.05 µM; under setting [2], less than 0.01 µM.

Take `O=C([C@H](O)c1cccc(-c2cccc(F)c2)c1)N1CCCc2nc(C3(c4cncc(C5CCCCC5)c4)CC3)[nH]c(=O)c2C1` [55-11]: the IC50 runs as follows: under setting [1], less than 0.05 µM; under setting [2], less than 0.01 µM.

As to `CC(C)(C)c1cccc(-c2cccc([C@@H](O)C(=O)N3CCCc4nc(C5(c6cncc(C7CCCCC7)c6)CC5)[nH]c(=O)c4C3)c2)c1` [55-12], the IC50 reads like this: under setting [1], less than 0.05 µM; under setting [2], less than 0.01 µM.

With `O=C([C@H](O)c1cccc(-c2cccc(Cl)c2)c1)N1CCCc2nc(C3(c4cncc(C5CCCCC5)c4)CC3)[nH]c(=O)c2C1` [55-13], the IC50 is, setting by setting: under setting [1], less than 0.05 µM; under setting [2], less than 0.01 µM.

In turn, `O=C([C@H](O)c1cccc(-c2cccc(C(F)(F)F)c2)c1)N1CCCc2nc(C3(c4cncc(C5CCCCC5)c4)CC3)[nH]c(=O)c2C1` [55-14] displayed an IC50 under setting [1] of less than 0.05 µM and an IC50 under setting [2] of less than 0.01 µM.

`O=C(C(O)c1cccc(-c2cccc(OC(F)(F)F)c2)c1)N1CCCc2nc(C3(c4cncc(-c5ccccc5)c4)CC3)[nH]c(=O)c2C1` (centres unmarked) [56-1]: the IC50 reads like this: under setting [1], less than 0.05 µM; under setting [2], less than 0.003 µM.

With `O=C(C(O)c1cccc(-c2cccc(C(F)(F)F)c2)c1)N1CCCc2nc(C3(c4cncc(-c5ccccc5)c4)CC3)[nH]c(=O)c2C1` (centres unmarked) [56-2], the IC50 is less than 0.05 µM under setting [1] and less than 0.003 µM under setting [2].

As to `CC(C)(C)c1cccc(-c2cccc(C(O)C(=O)N3CCCc4nc(C5(c6cncc(-c7ccccc7)c6)CC5)[nH]c(=O)c4C3)c2)c1` (centres unmarked) [56-3], the IC50 runs as follows: under setting [1], less than 0.05 µM; under setting [2], less than 0.003 µM.

As for `CC(C)(C)c1cccc(-c2cccc([C@@H](O)C(=O)N3CCCc4nc(C5(c6cncc(-c7ccccc7)c6)CC5)[nH]c(=O)c4C3)c2)c1` [56-4], the IC50 is less than 0.05 µM under setting [1] and less than 0.01 µM under setting [2].

Turning to `O=C([C@H](O)c1cccc(-c2cccc(C(F)(F)F)c2)c1)N1CCCc2nc(C3(c4cncc(-c5ccccc5)c4)CC3)[nH]c(=O)c2C1` [56-5], the IC50 was less than 0.05 µM under setting [1] and less than 0.01 µM under setting [2].

Consider `O=C([C@H](O)c1cccc(-c2cccc(OC(F)(F)F)c2)c1)N1CCCc2nc(C3(c4cncc(-c5ccccc5)c4)CC3)[nH]c(=O)c2C1` [56-6], for which the half-maximal inhibitory concentration (IC50) by setting is: under setting [1], less than 0.05 µM; under setting [2], less than 0.01 µM.

For the compound `O=C(Cc1cccc(-c2cccc(F)c2)c1)N1CCCc2nc(C3(c4ccccc4)CC3)[nH]c(=O)c2C1` [57-1], the IC50 reads like this: under setting [1], less than 0.05 µM; under setting [2], less than 0.01 µM.

As for `O=C(Cc1cccc(-c2cccc(OC(F)(F)F)c2)c1)N1CCCc2nc(C3(c4ccccc4)CC3)[nH]c(=O)c2C1` [57-2], the IC50 by setting is: under setting [1], less than 0.05 µM; under setting [2], less than 0.003 µM.

In the case of `O=C(Cc1cccc(-c2cccc(C(F)(F)F)c2)c1)N1CCCc2nc(C3(c4ccccc4)CC3)[nH]c(=O)c2C1` [57-3], the IC50 runs as follows: under setting [1], less than 0.05 µM; under setting [2], less than 0.01 µM.

`CC(C)(C)c1cccc(-c2cccc(CC(=O)N3CCCc4nc(C5(c6ccccc6)CC5)[nH]c(=O)c4C3)c2)c1` [57-4] came in with an IC50 under setting [1] of less than 0.05 µM and an IC50 under setting [2] of less than 0.01 µM.

Regarding `CC(C)c1cccc(-c2cccc(CC(=O)N3CCCc4nc(C5(c6cccc(Cl)c6)CC5)[nH]c(=O)c4C3)c2)c1` [57-5], the IC50 runs as follows: under setting [1], less than 0.05 µM; under setting [2], less than 0.01 µM.

For the compound `CC(C)(C)c1cccc(-c2cccc(CC(=O)N3CCCc4nc(C5(c6cccc(Cl)c6)CC5)[nH]c(=O)c4C3)c2)c1` [57-6], the IC50 is, setting by setting: under setting [1], less than 0.05 µM; under setting [2], less than 0.01 µM.

On to `O=C(Cc1cccc(-c2cccc(C(F)(F)F)n2)c1)N1CCCc2nc(C3(c4cccc(Cl)c4)CC3)[nH]c(=O)c2C1` [57-7], for which the IC50 is less than 0.05 µM under setting [1] and less than 0.01 µM under setting [2].

As for `O=C(Cc1cccc(-c2cccc(OC(F)(F)F)c2)c1)N1CCCc2nc(C3(c4cccc(Cl)c4)CC3)[nH]c(=O)c2C1` [57-8], the IC50 by setting is: under setting [1], less than 0.05 µM; under setting [2], less than 0.01 µM.

For `O=C(Cc1cccc(-c2cc(F)cc(Cl)c2)c1)N1CCCc2nc(C3(c4cccc(Cl)c4)CC3)[nH]c(=O)c2C1` [57-9], the IC50 runs as follows: under setting [1], less than 0.05 µM; under setting [2], less than 0.01 µM.

Take `O=C(N1CCCc2nc(C3(c4ccccc4)CC3)[nH]c(=O)c2C1)C(F)(F)c1cccc(-c2cccc(C(F)(F)F)c2)c1` [58-1]: the IC50 reads like this: under setting [1], less than 0.05 µM; under setting [2], less than 0.01 µM.

In the case of `CC(C)(C)c1cccc(-c2cccc(C(F)(F)C(=O)N3CCCc4nc(C5(c6ccccc6)CC5)[nH]c(=O)c4C3)c2)c1` [58-2], the IC50 is less than 0.05 µM under setting [1] and less than 0.01 µM under setting [2].

In the case of `CC(C)Oc1cccc(-c2cccc(C(F)(F)C(=O)N3CCCc4nc(C5(c6ccccc6)CC5)[nH]c(=O)c4C3)c2)c1` [58-3], the IC50 under setting [1] was less than 0.05 µM and the IC50 under setting [2] was less than 0.01 µM.

Take `O=C(N1CCCc2nc(C3(c4ccccc4)CC3)[nH]c(=O)c2C1)C(F)(F)c1cccc(-c2cccc(C3CC3)c2)c1` [58-4]: the IC50 under setting [1] was less than 0.05 µM and the IC50 under setting [2] was less than 0.01 µM.

On to `O=C(N1CCCc2nc(C3(c4ccccc4)CC3)[nH]c(=O)c2C1)C(F)(F)c1cccc(-c2cccc(OC(F)(F)F)c2)c1` [58-5], for which the IC50 under setting [1] was less than 0.05 µM and the IC50 under setting [2] is less than 0.01 µM.

The compound `CC(C)N(Cc1ccccc1)C(=O)c1csc(C2(c3nc4c(c(=O)[nH]3)CN(C(=O)[C@H](O)c3cccc(C(F)(F)F)c3)CCC4)CC2)c1` [59-1] had an IC50 under setting [1] of less than 0.05 µM and a half-inhibitory concentration (IC50) under setting [2] of less than 0.01 µM.

As for `CN(C(=O)c1csc(C2(c3nc4c(c(=O)[nH]3)CN(C(=O)[C@H](O)c3cccc(C(F)(F)F)c3)CCC4)CC2)c1)C1CCCCC1` [59-2], the IC50 runs as follows: under setting [1], less than 0.05 µM; under setting [2], less than 0.01 µM.

In the case of `CN(Cc1ccccc1)C(=O)c1csc(C2(c3nc4c(c(=O)[nH]3)CN(C(=O)[C@H](O)c3cccc(C(F)(F)F)c3)CCC4)CC2)c1` [59-3], the IC50 is less than 0.05 µM under setting [1] and less than 0.01 µM under setting [2].

Compound `O=C(c1csc(C2(c3nc4c(c(=O)[nH]3)CN(C(=O)[C@H](O)c3cccc(C(F)(F)F)c3)CCC4)CC2)c1)N1Cc2ccccc2C1` [59-4] yielded a half-inhibitory concentration (IC50) under setting [1] of less than 0.05 µM.

As to `CC(C)N(C)C(=O)c1csc(C2(c3nc4c(c(=O)[nH]3)CN(C(=O)[C@H](O)c3cccc(C(F)(F)F)c3)CCC4)CC2)c1` [59-5], under setting [1], the IC50 was less than 0.05 µM.

Turning to `O=C(NCc1ccccc1)c1csc(C2(c3nc4c(c(=O)[nH]3)CN(C(=O)[C@H](O)c3cccc(C(F)(F)F)c3)CCC4)CC2)c1` [59-6], under setting [1], the IC50 was less than 0.05 µM.

On to `CN(Cc1cccc2ccccc12)C(=O)c1csc(C2(c3nc4c(c(=O)[nH]3)CN(C(=O)[C@H](O)c3cccc(C(F)(F)F)c3)CCC4)CC2)c1` [59-10], for which the IC50 is less than 0.05 µM under setting [1] and less than 0.01 µM under setting [2].

`CN(Cc1ccc(Oc2ccccc2)cc1)C(=O)c1csc(C2(c3nc4c(c(=O)[nH]3)CN(C(=O)[C@H](O)c3cccc(C(F)(F)F)c3)CCC4)CC2)c1` [59-11]: the IC50 runs as follows: under setting [1], less than 0.05 µM; under setting [2], less than 0.01 µM.

`O=C(c1csc(C2(c3nc4c(c(=O)[nH]3)CN(C(=O)[C@H](O)c3cccc(C(F)(F)F)c3)CCC4)CC2)c1)N(Cc1ccccc1)Cc1ccccc1` [59-12]: the IC50 reads like this: under setting [1], less than 0.05 µM; under setting [2], less than 0.01 µM.

By IC50 is commonly meant the concentration at which inhibition is half-maximal. A lower IC50 goes with higher potency.

The values above are taken from patent US12673946B2, “Pyrimidin-4(3H)-one derivatives as TRPV4 antagonists” (RaQualia Pharma Inc., priority 2020, dated 2026).
